# Experimental data published in patent US4117151A, “Therapeutic sulfonamides” (priority 1976, dated 1978).
# “Also recorded” adds a separate entry of the source. Where a name gives a salt, the structure may show the parent alone.
# Tests used:
# myocardium = conditions: background; cited from earlier work
# [1] = tested on: oxygen consumption of the myocardium; test: oxygen consumption of the myocardium (rate-pressure product); format: in vivo; conditions: anaesthetized dog, 10 mg/kg intravenous, 100 before administration
# Description: This comparative trial aimed at determining the respective capabilities of the two substances to reduce the oxygen consumption of the myocardium. This property was measured by the indirect method known as the "rate-pressure product" which is a widely used and accurate haemodynamic index of myocardial oxygen consumption.
# This method requires two cardiovascular parameters to be measured simultaneously, namely the mean aortic systolic blood-pressure and the heart-rate.
# The "rate-pressure product" is obtained by multiplying the number of heart beats per minute by the mean aortic systolic blood-pressure. This provides an index of the total amount of oxygen used by the myocardium over a period of one minute. As it thus represents an accurate indication of the oxygen consumption of the myocardium, any lowering of the "rate-pressure product" indicates a corresponding drop in the oxygen consumption of the myocardium.
# These tests were carried out on dogs which had been previously anaesthetized with sodium pentobarbital (30 mg/kg by intravenous route).
# In both cases, the injection of 10 mg/kg took 2 minutes to administer.
# patient = conditions: clinical use; background; cited from earlier work
# [2] = tested on: blood-flow to the myocardium; test: arterial coronary blood-flow (blood-flow to the myocardium); format: in vivo, dog; conditions: 10 mg/kg intravenous
# Description: (1) The capability of Compound No. 7 of increasing the blood-flow to the myocardium and thus stepping up the supply of oxygen to this muscle was determined in accordance with the technique described by R. CHARLIER and J. BAUTHIER in Arzneimittel Forschung "Drug Research" 23, 1305-1311 (1973).
# Seven experiments were carried out on seven dogs, using a intravenous injection of 10 mg/kg of Compound No. 7. […] The increase in blood-flow was regular and the return to the control values took place progressively within twenty minutes.
# cardiac output = test: cardiac output; format: in vivo; conditions: dog, 10 mg/kg intravenous
# Description: (§1) The same experimental conditions as above were observed and the following parameters were measured: […]
# cardiac frequency = test: cardiac frequency, 60 minutes experiment; format: in vivo; conditions: dog, 10 mg/kg intravenous, during 60 minutes
# Description: as §1
# stroke volume = stroke volume (cardiac output divided by heart-beats per minute); format: in vivo; conditions: dog, 10 mg/kg intravenous; for Stroke Volume: initial value 100%
# Description: The same experimental conditions as above were observed and the following parameters were measured:
# Thus, in order to determine the effect of any particular substance on stroke volume, it is sufficient to divide cardiac output by the number of heart-beats per minute.
# acute toxicity in rats = format: in vivo; conditions: rat, in vivo, single administration, 12 days observation
# Description: (§2) Finally, acute toxicity tests were carried out on rats and mice with Compound No. 7 and on rats with Compounds Nos. 13 and 14, the animals being kept under observation for 12 days following one single administration.
# rats = test: acute toxicity in rats; format: in vivo; conditions: single administration, 12 days observation
# Description: as §2
# acute toxicity in mice = format: in vivo; conditions: mouse, in vivo, single administration, 12 days observation
# Description: as §2
# mice = test: acute toxicity in mice; format: in vivo; conditions: single administration, 12 days observation
# Description: as §2
smiles,measurement,setting,value
CC(C)NCC(O)COc1cccc2ccccc12 (racemic) [prapranolol],anti-adrenergic effect,myocardium,exert an anti-adrenergic effect
same,cardiac frequency,myocardium,considerably reduce cardiac frequency
same,cardiac functioning,myocardium,depress cardiac functioning
same,oxygen requirements of the myocardium,myocardium,diminish the oxygen requirements of the myocardium
same,supply of oxygen to the myocardium,myocardium,lower the supply of oxygen to the myocardium
"CCCCc1oc2ccccc2c1C(=O)c1cc(I)c(OCCN(CC)CC)c(I)c1 [Amiodarone, reference compound]",Oxygen Consumption (rate-pressure product),[1]; 2.5 minutes after,80.9
same,Oxygen Consumption (rate-pressure product),[1]; 5 minutes after,79.1
same,Oxygen Consumption (rate-pressure product),[1]; 10 minutes after,81.7
same,Oxygen Consumption (rate-pressure product),[1]; 15 minutes after,79.7
same,Oxygen Consumption (rate-pressure product),[1]; 20 minutes after,79.6
same,Oxygen Consumption (rate-pressure product),[1]; 25 minutes after,80.4
same,Oxygen Consumption (rate-pressure product),[1]; 30 minutes after,80.2
same,Oxygen Consumption (rate-pressure product),[1]; 35 minutes after,79.6
same,Oxygen Consumption (rate-pressure product),[1]; 40 minutes after,79.6
same,Oxygen Consumption (rate-pressure product),[1]; 45 minutes after,79.6
same,Oxygen Consumption (rate-pressure product),[1]; 50 minutes after,80.9
same,Oxygen Consumption (rate-pressure product),[1]; 55 minutes after,80.0
same,Oxygen Consumption (rate-pressure product),[1]; 60 minutes after,79.1
same,four qualities of an ideal anti-anginal agent,myocardium,possesses the four qualities
same,side-effects,patient,"microdeposit in the cornea; also recorded: in a few rare cases, the development of a cutaneous sensitivity to light which can lead to a slate-coloured pigmentation of the skin; also recorded: dysfunction of the thyroid gland"
"CCCCc1oc2ccccc2c1C(=O)c1ccc(N(CCN(C)C)S(=O)(=O)c2ccc(C)cc2)cc1 [Compound 7, 2-n-butyl-3-[N-(2-dimethylaminoethyl)-N-(4-methyl-benzenesulfonyl)-4-amino-benzoyl]-benzofuran]",return of blood-flow to the control values,"[2]; dog, hydrochloride",twenty
same,supply of oxygen to the myocardium,"[2]; dog, conclusion in words",increases to a very marked degree the supply of oxygen to the myocardium
same,maximal increase in blood-flow to the myocardium,"[2]; seven dogs, after 3 minutes, hydrochloride",about 94%
same,return of cardiac output to the control value,cardiac output,≤ 20 min
same,increase in cardiac output,cardiac output; after 2.5 minutes,70%
same,increase in cardiac output,cardiac output; after 5 minutes,50%
same,cardiac frequency,cardiac frequency,dropped to a highly significant degree during 60 minutes
same,increase in stroke volume,stroke volume; during the first 5 minutes,above 100%
same,Stroke Volume,stroke volume; 2.5 min,213%
same,Stroke Volume,stroke volume; 5 min,200%
same,Stroke Volume,stroke volume; 10 min,172%
same,Stroke Volume,stroke volume; 15 min,152%
same,Stroke Volume,stroke volume; 20 min,143%
same,Stroke Volume,stroke volume; 25 min,136%
same,Stroke Volume,stroke volume; 30 min,137%
same,Stroke Volume,stroke volume; 35 min,138%
same,Stroke Volume,stroke volume; 40 min,127%
same,Stroke Volume,stroke volume; 45 min,127%
same,Stroke Volume,stroke volume; 50 min,130%
same,Stroke Volume,stroke volume; 55 min,120%
same,Stroke Volume,stroke volume; 60 min,117%
same,performance of the cardiac muscle,stroke volume; conclusion in words,"does not depress the performance of the cardiac muscle, and even stimulates this extremely important factor of cardiac functioning"
same,Oxygen Consumption (rate-pressure product),[1]; 2.5 minutes after,54.4
same,Oxygen Consumption (rate-pressure product),[1]; 5 minutes after,57.8
same,Oxygen Consumption (rate-pressure product),[1]; 10 minutes after,63.5
same,Oxygen Consumption (rate-pressure product),[1]; 15 minutes after,64.8
same,Oxygen Consumption (rate-pressure product),[1]; 20 minutes after,64.8
same,Oxygen Consumption (rate-pressure product),[1]; 25 minutes after,65.2
same,Oxygen Consumption (rate-pressure product),[1]; 30 minutes after,65.6
same,Oxygen Consumption (rate-pressure product),[1]; 35 minutes after,66.0
same,Oxygen Consumption (rate-pressure product),[1]; 40 minutes after,66.8
same,Oxygen Consumption (rate-pressure product),[1]; 45 minutes after,67.2
same,Oxygen Consumption (rate-pressure product),[1]; 50 minutes after,67.6
same,Oxygen Consumption (rate-pressure product),[1]; 55 minutes after,68.9
same,Oxygen Consumption (rate-pressure product),[1]; 60 minutes after,68.9
same,LD50 at 288 h,"acute toxicity in rats; ip, intraperitoneal",600 mg/kg
same,LD50 at 288 h,"acute toxicity in rats; po, intragastric",1600 mg/kg
same,LD0,rats; intragastric,800 mg/kg
same,LD95,rats; intragastric,2400 mg/kg
same,LD0,rats; intraperitoneal,160 mg/kg
same,LD95,rats; intraperitoneal,1400 mg/kg
same,LD50 at 288 h,"acute toxicity in mice; ip, intraperitoneal",275 mg/kg
same,LD50 at 288 h,"acute toxicity in mice; po, intragastric",2100 mg/kg
same,LD0,mice; intragastric,550 mg/kg
same,LD95,mice; intragastric,5000 mg/kg
same,LD0,mice; intraperitoneal,50 mg/kg
same,LD95,mice; intraperitoneal,900 mg/kg
"CCCCc1oc2ccccc2c1C(=O)c1ccc(N(CCCN(CCC)CCC)S(=O)(=O)c2ccc([N+](=O)[O-])cc2)cc1 [Compound 13, 2-n-butyl-3-[N-(3-di-n-propylaminopropyl)-N-(4-nitro-benzenesulfonyl)-4-amino-benzoyl]-benzofuran]",LD50 at 288 h,"acute toxicity in rats; ip, intraperitoneal",1000 mg/kg
same,LD0,rats; intraperitoneal,180 mg/kg
same,LD95,rats; intraperitoneal,3000 mg/kg
"CCCCc1oc2ccccc2c1C(=O)c1ccc(N(CCCN(CCCC)CCCC)S(=O)(=O)c2ccc(OC)cc2)cc1 [Compound 14, 2-n-butyl-3-[N-(3-di-n-butylaminopropyl)-N-(4-methoxy-benzenesulfonyl)-4-amino-benzoyl]-benzofuran]",LD50 at 288 h,"acute toxicity in rats; ip, intraperitoneal",1000 mg/kg
same,LD0,rats; intraperitoneal,200 mg/kg
same,LD95,rats; intraperitoneal,3000 mg/kg
OCCN(CCO)c1nc(N2CCCCC2)c2nc(N(CCO)CCO)nc(N3CCCCC3)c2n1 [dipyridamole],anti-adrenergic effect,myocardium,do not inhibit the cardio-vascular reactions to adrenergic stimulants
same,cardiac functioning,myocardium,do not depress the cardiac function
same,oxygen requirements of the myocardium,myocardium,do not reduce the oxygen requirements of the myocardium
same,supply of oxygen to the myocardium,myocardium,increase the supply of oxygen to the myocardium
C1CCC(C(CC2CCCCN2)C2CCCCC2)CC1 (stereo not shown) [perhexiline maleate],anti-adrenergic effect,myocardium,does not possess any anti-adrenergic properties
same,cardiac frequency,myocardium,diminishing cardiac frequency
same,cardiac functioning,myocardium,does not appear to exert a depressant effect upon cardiac functioning
same,oxygen requirements of the myocardium,myocardium,reducing the oxygen requirements of the myocardium
same,supply of oxygen to the myocardium,myocardium,increasing the supply of oxygen to the myocardium
CC(=O)Nc1ccc(OCC(O)CNC(C)C)cc1 (stereo not shown) [practolol],anti-adrenergic effect,myocardium,exert an anti-adrenergic effect
same,cardiac frequency,myocardium,considerably reduce cardiac frequency
same,cardiac functioning,myocardium,depress cardiac functioning
same,oxygen requirements of the myocardium,myocardium,diminish the oxygen requirements of the myocardium
same,supply of oxygen to the myocardium,myocardium,lower the supply of oxygen to the myocardium
CC(Cc1ccccc1)NCCC(c1ccccc1)c1ccccc1 (stereo not shown) [prenylamine],anti-adrenergic effect,myocardium,do not inhibit the cardio-vascular reactions to adrenergic stimulants
same,cardiac functioning,myocardium,do not depress the cardiac function
same,oxygen requirements of the myocardium,myocardium,do not reduce the oxygen requirements of the myocardium
same,supply of oxygen to the myocardium,myocardium,increase the supply of oxygen to the myocardium
